Data from patent US9073876B2, “Flap modulators” (JANSSEN PHARMACEUTICA NV, priority 2013, dated 2015).

What was measured:
[1] = test system: leukotriene pathway in human whole blood (LTB4 levels); assay: Human whole blood assay (LTB4); format: cell-based; settings: human whole blood diluted 1:1 in RPMI, stimulated with calcium ionophore A23187; single replicate
In short: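 Heparinised human whole blood, diluted 1:1 in RPMI, was pre-incubated with test compounds for 15 min at 37° Celsius, then stimulated with A23187 (7 μg/mL) for 30 min at 37° Celsius. Plasma LTB4 was measured by immunoassay kit; IC50 from 4-parameter fit; single replicate, at least one healthy donor.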

[2] = molecular target: human FLAP (Homo sapiens (Human), UniProt P20292); assay: FLAP binding assay (HTRF); settings: human FLAP-containing membranes, HTRF format; average of two assay plates, duplicates; read-out: FLAP Binding wild type HTRF Ki
Sequence of human FLAP (P20292 whole entry): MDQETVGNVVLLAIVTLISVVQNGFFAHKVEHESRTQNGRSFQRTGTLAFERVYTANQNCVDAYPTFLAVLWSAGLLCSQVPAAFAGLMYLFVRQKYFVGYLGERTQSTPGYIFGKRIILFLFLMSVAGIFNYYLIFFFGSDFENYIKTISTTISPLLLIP
In short: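 Samples were run in duplicate on each of two plates and the plate results averaged. Read-out is the HTRF signal ratio.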

Q: How did the IC50 [1] turn out when `Oc1c(C2CCC2)ccc(-c2cnc3c(c2)CCN3)c1F` [Example 199, 6-Cyclobutyl-3-(2,3-dihydro-1H-pyrrolo[2,3-b]pyridin-5-yl)-2-fluorophenol] was run?
A: Its IC50 is 1060 nM.

Q: And the Ki [2]?
A: Its Ki is 24.2 nM.

Q: What does the source list for `CC(C)(C)c1ccc(-c2cnc(N)cn2)c(F)c1O[Si](C)(C)C(C)(C)C` [Example 200, 5-(4-tert-Butyl-3-{[tert-butyl(dimethyl)silyl]oxy}-2-fluorophenyl)pyrazin-2-amine]?
A: IC50 [1]: 1360 nM; Ki [2]: 155 nM

Q: With `CC(C)(C)c1ccc(-c2cnc(N)cn2)c(F)c1Oc1ncccn1` [Example 201, 5-[4-tert-Butyl-2-fluoro-3-(pyrimidin-2-yloxy)phenyl]pyrazin-2-amine] as the compound, how does the IC50 [1] read?
A: Its IC50 is 51.8 nM.

Q: What about the Ki [2] of the same compound?
A: The Ki was 8.5 nM.

Q: Which results are given for `CC(C)(C)c1ccc(-c2cnc(N)cn2)c(F)c1Oc1nccc(N)n1` [Example 203, 2-[3-(5-Aminopyrazin-2-yl)-6-tert-butyl-2-fluorophenoxy]pyrimidin-4-amine]?
A: IC50 [1]: 30.8 nM; Ki [2]: 6.9 nM

Q: Which IC50 [1] does the source give for `COc1cc(Oc2c(C(C)(C)C)ccc(-c3cnc(N)cn3)c2F)ncn1` [Example 204, 5-{4-tert-Butyl-2-fluoro-3-[(6-methoxypyrimidin-4-yl)oxy]phenyl}pyrazin-2-amine] here?
A: Its IC50 is 171 nM.

Q: What about the Ki [2] of the same compound?
A: Its Ki is 81.5 nM.

Q: What does the source list for `COc1c(C(C)(C)C)ccc(-c2cnc(N)cn2)c1F` [Example 205, 5-(4-tert-Butyl-2-fluoro-3-methoxyphenyl)pyrazin-2-amine]?
A: IC50 [1]: 150 nM; Ki [2]: 40.2 nM

Q: `CC(C)(C)c1ccc(-c2cnc(N)nc2)c(F)c1Oc1ncccn1` [Example 207, 5-[4-tert-Butyl-2-fluoro-3-(pyrimidin-2-yloxy)phenyl]pyrimidin-2-amine] was tested. Which IC50 [1] did it give?
A: Its IC50 is 72.6 nM.

Q: What about the Ki [2] of the same compound?
A: Its Ki is 47.4 nM.

Q: With `CC(C)(C)c1ccc(-c2cnc(N)nc2)c(F)c1Oc1cc(N)ncn1` [Example 208, 5-{3-[(6-Aminopyrimidin-4-yl)oxy]-4-tert-butyl-2-fluorophenyl}pyrimidin-2-amine] as the compound, how does the IC50 [1] read?
A: The IC50 was 215 nM.

Q: And the Ki [2]?
A: The Ki was 46.5 nM.

Q: With `CC(C)(C)c1ccc(-c2cnc(N)nc2)c(F)c1Oc1nccc(N)n1` [Example 209, 5-{3-[(4-Aminopyrimidin-2-yl)oxy]-4-tert-butyl-2-fluorophenyl}pyrimidin-2-amine] as the compound, how does the IC50 [1] read?
A: Its IC50 is 51.1 nM.

Q: And the Ki [2]?
A: The Ki was 23.3 nM.

Q: Which IC50 [1] does the source give for `Nc1cnc(-c2ccc(C3CCCC3)c(OCc3ccccc3)c2F)cn1` [Example 212, 5-[3-(Benzyloxy)-4-cyclopentyl-2-fluorophenyl]pyrazin-2-amine] here?
A: The IC50 was 1100 nM.

Q: What about the Ki [2] of the same compound?
A: The Ki was 64 nM.

Q: What does the source list for `CC(C)Oc1c(C2CCCC2)ccc(-c2cnc(N)cn2)c1F` [Example 213, 5-[4-Cyclopentyl-2-fluoro-3-(1-methylethoxy)phenyl]pyrazin-2-amine]?
A: IC50 [1]: 1010 nM; Ki [2]: 92.1 nM

Q: What does the source list for `Fc1c(-c2cnc3[nH]ccc3n2)ccc(C2CCCC2)c1OCc1ccccc1` [Example 214, 2-[3-(Benzyloxy)-4-cyclopentyl-2-fluorophenyl]-5H-pyrrolo[2,3-b]pyrazine]?
A: IC50 [1]: 1090 nM; Ki [2]: 30.8 nM

Q: With `COc1c(C2CCC2)ccc(-c2cnc(N)c(C#N)n2)c1F` [Example 218, 3-amino-6-(4-cyclobutyl-2-fluoro-3-methoxyphenyl)-pyrazine-2-carbonitrile] as the compound, how does the IC50 [1] read?
A: Its IC50 is greater than 5000 nM.

Q: And the Ki [2]?
A: The Ki was 77.3 nM.

Q: With `Oc1c(C2CCC2)ccc(-c2cnc3[nH]ccc3c2)c1F` [Example 220, 6-cyclobutyl-2-fluoro-3-(1H-pyrrolo[2,3-b]pyridin-5-yl)phenol] as the compound, how does the IC50 [1] read?
A: The IC50 was 1120 nM.

Q: And the Ki [2]?
A: Its Ki is 21.8 nM.

Q: For `Nc1cnc(-c2ccc(C3CCC3)c(Oc3ccnc(Oc4c(C5CCC5)ccc(-c5cnc(N)cn5)c4F)n3)c2F)cn1` [Example 224, 5,5′-((pyrimidine-2,4-diylbis(oxy))bis(4-cyclobutyl-2-fluoro-3,1-phenylene))bis(pyrazin-2-amine)], which IC50 [1] is on record?
A: The IC50 was 287 nM.

Q: And the Ki [2]?
A: Its Ki is 23.2 nM.

Q: How did the IC50 [1] turn out when `Fc1c(-c2cnc3c(c2)OCCN3)ccc(C2CCC2)c1Oc1ncccn1` [Example 225, 7-(4-cyclobutyl-2-fluoro-3-(pyrimidin-2-yloxy)phenyl)-3,4-dihydro-2H-pyrido[3,2-b][1,4]oxazine] was run?
A: The IC50 was 68.4 nM.

Q: What about the Ki [2] of the same compound?
A: The Ki was 2.5 nM.

Q: With `Nc1ccnc(Oc2c(C3CCC3)ccc(-c3cnc4c(c3)OCCN4)c2F)n1` [Example 226, 2-(6-cyclobutyl-3-(3,4-dihydro-2H-pyrido[3,2-b][1,4]oxazin-7-yl)-2-fluorophenoxy)pyrimidin-4-amine] as the compound, how does the IC50 [1] read?
A: The IC50 was 90.1 nM.

Q: And the Ki [2]?
A: The Ki was 1.4 nM.

Q: Which results are given for `COc1cc(Oc2c(C3CCC3)ccc(-c3cnc4c(c3)OCCN4)c2F)ncn1` [Example 227, 7-(4-cyclobutyl-2-fluoro-3-((6-methoxypyrimidin-4-yl)oxy)phenyl)-3,4-dihydro-2H-pyrido[3,2-b][1,4]oxazine]?
A: IC50 [1]: 332 nM; Ki [2]: 8.5 nM

Q: Which IC50 [1] does the source give for `COc1cc(Oc2c(C3CCC3)ccc(-c3cnc4[nH]ccc4n3)c2F)ncn1` [Example 229, 2-(4-cyclobutyl-2-fluoro-3-((6-methoxypyrimidin-4-yl)oxy)phenyl)-5H-pyrrolo[2,3-b]pyrazine] here?
A: The IC50 was 408 nM.

Q: And the Ki [2]?
A: Its Ki is 7.7 nM.

Q: With `Fc1c(-c2cnc3[nH]ccc3n2)ccc(C2CCC2)c1Oc1ncccn1` [Example 230, 2-(4-cyclobutyl-2-fluoro-3-(pyrimidin-2-yloxy)phenyl)-5H-pyrrolo[2,3-b]pyrazine] as the compound, how does the IC50 [1] read?
A: The IC50 was 238 nM.

Q: And the Ki [2]?
A: The Ki was 2.5 nM.

Q: What does the source list for `N#Cc1nccc(Oc2c(C3CCC3)ccc(-c3cnc(N)cn3)c2F)n1` [Example 234, 4-(3-(5-Aminopyrazin-2-yl)-6-cyclobutyl-2-fluorophenoxy)pyrimidine-2-carbonitrile]?
A: IC50 [1]: > 10000 nM; Ki [2]: 1300 nM

Q: What does the source list for `Cc1nc(Oc2c(C3CCC3)ccc(-c3cnc(N)cn3)c2F)cc(N(C)C)n1` [Example 235, 6-(3-(5-Aminopyrazin-2-yl)-6-cyclobutyl-2-fluorophenoxy)-N,N,2-trimethylpyrimidin-4-amine]?
A: IC50 [1]: 113 nM; Ki [2]: 3.3 nM

Q: Which results are given for `Cc1cc(Oc2c(C3CCC3)ccc(-c3cnc(N)cn3)c2F)nc(N(C)C)n1` [Example 236, 4-(3-(5-Aminopyrazin-2-yl)-6-cyclobutyl-2-fluorophenoxy)-N,N,6-trimethylpyrimidin-2-amine]?
A: IC50 [1]: 37.1 nM; Ki [2]: 2.2 nM

Q: Which results are given for `CN(C)c1cc(Oc2c(C3CCC3)ccc(-c3cnc(N)cn3)c2F)ncn1` [Example 237, 6-(3-(5-Aminopyrazin-2-yl)-6-cyclobutyl-2-fluorophenoxy)-N,N-dimethylpyrimidin-4-amine]?
A: IC50 [1]: 84.7 nM; Ki [2]: 3.3 nM

Q: Which IC50 [1] does the source give for `CCOC(=O)c1c(C(F)(F)F)nn(C)c1Oc1c(C2CCC2)ccc(-c2cnc(N)cn2)c1F` [Example 238, Ethyl 5-(3-(5-aminopyrazin-2-yl)-6-cyclobutyl-2-fluorophenoxy)-1-methyl-3-(trifluoromethyl)-1H-pyrazole-4-carboxylate] here?
A: The IC50 was 571 nM.

Q: What about the Ki [2] of the same compound?
A: Its Ki is 155 nM.

Q: For `CS(=O)(=O)c1ccc(Oc2c(C3CCC3)ccc(-c3cnc(N)cn3)c2F)nc1` [Example 239, 5-(4-cyclobutyl-2-fluoro-3-((5-(methylsulfonyl)pyridin-2-yl)oxy)phenyl)pyrazin-2-amine], which IC50 [1] is on record?
A: Its IC50 is 197 nM.

Q: What about the Ki [2] of the same compound?
A: Its Ki is 8.3 nM.

Q: What does the source list for `CC(C)(C)c1cc(Oc2c(C3CCC3)ccc(-c3cnc(N)cn3)c2F)nc(N)n1` [Example 240, 4-(3-(5-aminopyrazin-2-yl)-6-cyclobutyl-2-fluorophenoxy)-6-(tert-butyl)pyrimidin-2-amine]?
A: IC50 [1]: 104 nM; Ki [2]: 23.6 nM

Q: `Nc1cnc(-c2ccc(C3CCC3)c(Oc3nccc(N4CCC5(CC4)OCCCO5)n3)c2F)cn1` [Example 241, 5-(3-((4-(1,5-dioxa-9-azaspiro[5.5]undecan-9-yl)pyrimidin-2-yl)oxy)-4-cyclobutyl-2-fluorophenyl)pyrazin-2-amine] was tested. Which IC50 [1] did it give?
A: Its IC50 is 20.7 nM.

Q: What about the Ki [2] of the same compound?
A: Its Ki is 1.2 nM.

Q: Which IC50 [1] does the source give for `CC(C)Cc1cc(Oc2c(C3CCC3)ccc(-c3cnc(N)cn3)c2F)nc(N)n1` [Example 242, 4-(3-(5-aminopyrazin-2-yl)-6-cyclobutyl-2-fluorophenoxy)-6-isobutylpyrimidin-2-amine] here?
A: The IC50 was 30 nM.

Q: What about the Ki [2] of the same compound?
A: The Ki was 3.6 nM.

Q: Which results are given for `CS(=O)(=O)NCCOc1c(C2CCC2)ccc(-c2cnc(N)cn2)c1F` [Example 243, N-(2-(3-(5-Aminopyrazin-2-yl)-6-cyclobutyl-2-fluorophenoxy)-ethyl)-methane-sulfonamide]?
A: IC50 [1]: 859 nM; Ki [2]: 236 nM

Q: With `Nc1cnc(-c2ccc(C3CCC3)c(OCCN3CCOCC3)c2F)cn1` [Example 244, 5-(4-Cyclobutyl-2-fluoro-3-(2-morpholinoethoxy)phenyl)pyrazin-2-amine] as the compound, how does the IC50 [1] read?
A: Its IC50 is 1820 nM.

Q: And the Ki [2]?
A: The Ki was 462 nM.

Q: What does the source list for `CCOC(=O)CCCOc1c(C2CCC2)ccc(-c2cnc(N)cn2)c1F` [Example 245, Ethyl 4-(3-(5-aminopyrazin-2-yl)-6-cyclobutyl-2-fluorophenoxy)butanoate]?
A: IC50 [1]: 2800 nM; Ki [2]: 62.2 nM

Q: How did the IC50 [1] turn out when `CC(C)(C)OC(=O)N1CC(COc2c(C3CCC3)ccc(-c3cnc(N)cn3)c2F)C1` [Example 246, tert-butyl-3-((3-(5-aminopyrazin-2-yl)-6-cyclobutyl-2-fluorophenoxy)-methyl)azetidine-1-carboxylate] was run?
A: Its IC50 is 1590 nM.

Q: What about the Ki [2] of the same compound?
A: The Ki was 98.6 nM.

Q: Which IC50 [1] does the source give for `CC(C)(C)OC(=O)N1CCCC1COc1c(C2CCC2)ccc(-c2cnc(N)cn2)c1F` (stereo not drawn) [Example 248, tert-butyl 2-((3-(5-aminopyrazin-2-yl)-6-cyclobutyl-2-fluorophenoxy)methyl)pyrrolidine-1-carboxylate] here?
A: The IC50 was 10000 nM.

Q: What about the Ki [2] of the same compound?
A: Its Ki is 261 nM.

Q: Which IC50 [1] does the source give for `CC(C)(C)OC(=O)N1CCCC(COc2c(C3CCC3)ccc(-c3cnc(N)cn3)c2F)C1` (stereo not drawn) [Example 249, tert-Butyl 3-((3-(5-aminopyrazin-2-yl)-6-cyclobutyl-2-fluorophenoxy)methyl)piperidine-1-carboxylate] here?
A: The IC50 was 1260 nM.

Q: What about the Ki [2] of the same compound?
A: Its Ki is 208 nM.

Q: What does the source list for `Nc1cnc(-c2ccc(C3CCC3)c(OCCO)c2F)cn1` [Example 250, 2-(3-(5-Aminopyrazin-2-yl)-6-cyclobutyl-2-fluorophenoxy)ethanol]?
A: IC50 [1]: 357 nM; Ki [2]: 99.2 nM
